# Reference: US12716889B2, “Microfluidic-based device for in vivo wound infection model and uses thereof” (The Hong Kong Polytechnic University, priority 2021, dated 2026)
# Tested on: P. aeruginosa (PAO1) biofilm
# Assay: Viable cell counts (CFU) from biofilm on infected tail wound of Medaka fish in the MicroFish device
# Assay type: in vivo, Pseudomonas aeruginosa
# Conditions: ciprofloxacin monotherapy at 0, 0.05, 1, 5, 10 μg ml^−1 added to fish-microbe co-cultures; FIG. 5E
# Method: After harvesting the tails from euthanized animals after bacterial infection, the tissues were resuspended in 100 μl sterilized 0.9% (w/v) NaCl saline and ground manually by pellet pestle in 1.5-ml-microcentrifuge tubes (JET BIOFIL, China) until homogenization. The homogenized samples were diluted serially in 0.9% NaCl and then spread on centrimide agar (selective only for Pseudomonad growth) (Sigma-Aldrich, Germany). After incubation at 37° C. for 16 hrs, the colonies grown on the plates were enumerated. The CFU ml^−1 was tabulated by colony number×dilution factor[…]. Experiments were performed in triplicates, and the results are shown as mean±S.D.
structure (smiles),measurement,value
O=C(O)c1cn(C2CC2)c2cc(N3CCNCC3)c(F)cc2c1=O [ciprofloxacin],"biofilm viability (viable cell counts, CFU)",lower biofilm viability
